The values below are quoted from earlier work in paper PMC5852599, “Microfluidic Devices for Drug Delivery Systems and Drug Screening” (Genes, 2018).

This series relates to breast cancer cells (Her-2). Also on record: method as in PMID 20237849. The settings on record: 3D tumor spheroid in alginate hydrogel, compared to 2D cell culture.

`COc1cccc2c1C(=O)c1c(O)c3c(c(O)c1C2=O)C[C@@](O)(C(=O)CO)C[C@@H]3O[C@H]1C[C@H](N)[C@H](O)[C@H](C)O1` [doxorubicin]: the “effectiveness on cell viability and proliferation” value was “lower effectiveness”.
